Measurements from PubChem BioAssay AID330 (DTP/NCI, 2004).
Several values for one entry are separate records, joined by “and”; a condition that tells them apart may be missing. Equal values may be shown once. Toxic doses and inconclusive results are not listed. The calls were made as follows: active = survival T/C of 150% or more; inactive = T/C below 125% in these data.

Tested on: P388 leukemia ip, CD2F1 mice, survival T/C
Assay: NCI In Vivo Anticancer Drug Screen. Data for tumor model P388 Leukemia (intraperitoneal) in CD2F1 (CDF1) mice
Settings: endpoint: median survival time, higher = longer survival
Procedure, shortened: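 Mice carrying the transplanted tumor received test compound or vehicle. Survival was recorded in each group, and the value is the treated-group measurement divided by that of the vehicle-treated control group.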

[1] = dose: 50.0 mg/kg/injection, schedule: Q01DX005 (ip), vehicle: saline with Tween-80
[2] = dose: 50.0 mg/kg/injection, schedule: Q01DX009 (ip), vehicle: Klucel (hydroxypropylcellulose) (HPC)
[3] = dose: 100.0 mg/kg/injection, schedule: Q01DX009 (ip), vehicle: Klucel (hydroxypropylcellulose) (HPC)
[4] = dose: 200.0 mg/kg/injection, schedule: Q01DX009 (ip), vehicle: Klucel (hydroxypropylcellulose) (HPC)
[5] = dose: 50.0 mg/kg/injection, schedule: Q01DX001 (ip), vehicle: Klucel (hydroxypropylcellulose) (HPC)
[6] = dose: 100.0 mg/kg/injection, schedule: Q01DX001 (ip), vehicle: Klucel (hydroxypropylcellulose) (HPC)
[7] = dose: 50.0 mg/kg/injection, schedule: Q01DX009 (ip), vehicle: saline with Tween-80
[8] = dose: 100.0 mg/kg/injection, schedule: Q01DX009 (ip), vehicle: saline with Tween-80
[9] = dose: 200.0 mg/kg/injection, schedule: Q01DX009 (ip), vehicle: saline with Tween-80
[10] = dose: 12.5 mg/kg/injection, schedule: Q01DX005 (ip), vehicle: Klucel (hydroxypropylcellulose) (HPC)
[11] = dose: 25.0 mg/kg/injection, schedule: Q01DX005 (ip), vehicle: Klucel (hydroxypropylcellulose) (HPC)

Measured: T/C

NC(=Nc1ccccc1)N(c1ccccc1)c1ccc([N+](=O)[O-])cc1
inactive: dose: 7.5 mg/kg/injection, schedule: Q01DX009 (ip), vehicle: saline with Tween-80 92 % of control | dose: 15.0 mg/kg/injection, schedule: Q01DX009 (ip), vehicle: saline with Tween-80 100 % of control | dose: 30.0 mg/kg/injection, schedule: Q01DX009 (ip), vehicle: saline with Tween-80 91 % of control

COC1=C(c2c[nH]c3ccc(CC=C(C)C)cc23)C(=O)C(OC)=C(c2c[nH]c3ccc(CC=C(C)C)cc23)C1=O
inactive: [1] 89 % of control | dose: 100.0 mg/kg/injection, schedule: Q01DX005 (ip), vehicle: saline with Tween-80 89 % of control | dose: 200.0 mg/kg/injection, schedule: Q01DX005 (ip), vehicle: saline with Tween-80 94 % of control

O=C(O)C(c1ccccc1)C1CCCCC1C1CCCCC1 (stereo not drawn)
inactive: dose: 12.5 mg/kg/injection, schedule: Q01DX005 (ip), vehicle: saline with Tween-80 98 % of control | dose: 25.0 mg/kg/injection, schedule: Q01DX005 (ip), vehicle: saline with Tween-80 95 % of control | [1] 100 % of control and 93 % of control

CN1CCC(C#N)(c2ccccn2)CC1
inactive: dose: 2.5 mg/kg/injection, schedule: Q01DX009 (ip), vehicle: saline 100 % of control | dose: 5.0 mg/kg/injection, schedule: Q01DX009 (ip), vehicle: saline 109 % of control | dose: 10.0 mg/kg/injection, schedule: Q01DX009 (ip), vehicle: saline 100 % of control

CCOC(=O)C(=CNc1cc(C(F)(F)F)ccc1N1CCOCC1)C(=O)OCC
inactive: [2] 97 % of control | [3] 100 % of control | [4] 100 % of control

NC(N)=NS(=O)(=O)c1ccc(N=NC2=C(O)C(c3ccccc3)N(c3ccccc3)C2=O)cc1 (stereo not drawn)
inactive: dose: 100.0 mg/kg/injection, schedule: Q01DX001 (ip), vehicle: saline with Tween-80 102 % of control | dose: 200.0 mg/kg/injection, schedule: Q01DX001 (ip), vehicle: saline with Tween-80 102 % of control | dose: 400.0 mg/kg/injection, schedule: Q01DX001 (ip), vehicle: saline with Tween-80 90 % of control

CN(C)CCCSc1n[nH]c(=O)[nH]c1=O
inactive: dose: 25.0 mg/kg/injection, schedule: Q01DX005 (ip), vehicle: distilled water + alcohol 111 % of control | dose: 50.0 mg/kg/injection, schedule: Q01DX005 (ip), vehicle: distilled water + alcohol 104 % of control | dose: 100.0 mg/kg/injection, schedule: Q01DX005 (ip), vehicle: distilled water + alcohol 95 % of control | dose: 200.0 mg/kg/injection, schedule: Q01DX005 (ip), vehicle: distilled water + alcohol 92 % of control

CC(COS(C)(=O)=O)OS(C)(=O)=O (stereo not drawn)
inactive: [5] 98 % of control | [6] 93 % of control | dose: 200.0 mg/kg/injection, schedule: Q01DX001 (ip), vehicle: Klucel (hydroxypropylcellulose) (HPC) 101 % of control

CN(C)CCOc1cccc2c1C(=O)c1ccccc1C2=O
inactive: dose: 12.5 mg/kg/injection, schedule: Q01DX009 (ip), vehicle: water 113 % of control | dose: 25.0 mg/kg/injection, schedule: Q01DX009 (ip), vehicle: water 105 % of control | dose: 50.0 mg/kg/injection, schedule: Q01DX009 (ip), vehicle: water 107 % of control | dose: 100.0 mg/kg/injection, schedule: Q01DX009 (ip), vehicle: water 109 % of control

Cc1nc2c([N+](=O)[O-])c(N3CCN(c4ccccc4)CC3)c([N+](=O)[O-])cc2[nH]1
inactive: [7] 100 % of control | [8] 100 % of control | [9] 99 % of control

ClCc1cccc2c(CCl)cccc12
inactive: dose: 12.5 mg/kg/injection, schedule: Q01DX009 (ip), vehicle: saline with Tween-80 113 % of control | dose: 25.0 mg/kg/injection, schedule: Q01DX009 (ip), vehicle: saline with Tween-80 110 % of control and 124 % of control | [7] 121 % of control

CC(C)=NNS(=O)(=O)c1ccc(C)cc1
inactive: dose: 12.5 mg/kg/injection, schedule: Q01DX009 (ip), vehicle: Klucel (hydroxypropylcellulose) (HPC) 101 % of control | dose: 25.0 mg/kg/injection, schedule: Q01DX009 (ip), vehicle: Klucel (hydroxypropylcellulose) (HPC) 93 % of control | [2] 95 % of control | [3] 97 % of control | [4] 88 % of control

O=C1CCSc2ccccc21
inactive: [8] 95 % of control | [9] 109 % of control

O=C(c1ccccc1)C(c1ccccc1)n1nc2c(c1-c1ccccc1)CCC2 (stereo not drawn)
inactive: dose: 12.5 mg/kg/injection, schedule: Q01DX001 (ip), vehicle: Klucel (hydroxypropylcellulose) (HPC) 100 % of control | dose: 25.0 mg/kg/injection, schedule: Q01DX001 (ip), vehicle: Klucel (hydroxypropylcellulose) (HPC) 95 % of control | [5] 98 % of control | [6] 100 % of control

C=CCC(C(=O)O)C1(C(=O)O)CCCCCC1 (stereo not drawn)
inactive: dose: 100.0 mg/kg/injection, schedule: Q04DX002 (ip), vehicle: saline with Tween-80 94 % of control | dose: 200.0 mg/kg/injection, schedule: Q04DX002 (ip), vehicle: saline with Tween-80 93 % of control | dose: 400.0 mg/kg/injection, schedule: Q04DX002 (ip), vehicle: saline with Tween-80 92 % of control

COc1ccc2cc3cccc[n+]3cc2c1
inactive: dose: 0.19 mg/kg/injection, schedule: Q01DX005 (ip), vehicle: Klucel (hydroxypropylcellulose) (HPC) 100 % of control | dose: 0.39 mg/kg/injection, schedule: Q01DX005 (ip), vehicle: Klucel (hydroxypropylcellulose) (HPC) 110 % of control | dose: 0.78 mg/kg/injection, schedule: Q01DX005 (ip), vehicle: Klucel (hydroxypropylcellulose) (HPC) 108 % of control and 97 % of control

CCN(CC)Cc1cc(N=Nc2cccc3ccccc23)c2ccccc2c1O
inactive: [2] 102 % of control | [3] 108 % of control | [4] 100 % of control

N#Cc1ccc[n+](CC(=O)c2ccc3ccccc3c2)c1
inactive: dose: 6.25 mg/kg/injection, schedule: Q01DX005 (ip), vehicle: Klucel (hydroxypropylcellulose) (HPC) 103 % of control | [10] 103 % of control | [11] 100 % of control

Cc1ccc(S(=O)CC2=NC(C)(C)CO2)cc1 (stereo not drawn)
inactive: dose: 50.0 mg/kg/injection, schedule: Q01DX005 (ip), vehicle: saline 104 % of control | dose: 100.0 mg/kg/injection, schedule: Q01DX005 (ip), vehicle: saline 98 % of control | dose: 200.0 mg/kg/injection, schedule: Q01DX005 (ip), vehicle: saline 103 % of control

Nc1nc(N)c2cc(S(=O)(=O)c3nc(-c4ccccc4)cs3)ccc2n1
inactive: dose: 60.0 mg/kg/injection, schedule: Q01DX005 (ip), vehicle: Klucel (hydroxypropylcellulose) (HPC) 98 % of control | dose: 120.0 mg/kg/injection, schedule: Q01DX005 (ip), vehicle: Klucel (hydroxypropylcellulose) (HPC) 98 % of control | dose: 240.0 mg/kg/injection, schedule: Q01DX005 (ip), vehicle: Klucel (hydroxypropylcellulose) (HPC) 105 % of control

N#Cc1c(-c2ccc(Cl)cc2)cn2c1[nH]c(=O)c1ccccc12
inactive: dose: 60.0 mg/kg/injection, schedule: Q01DX005 (ip), vehicle: saline with Tween-80 107 % of control | dose: 120.0 mg/kg/injection, schedule: Q01DX005 (ip), vehicle: saline with Tween-80 102 % of control | dose: 240.0 mg/kg/injection, schedule: Q01DX005 (ip), vehicle: saline with Tween-80 96 % of control

O=S1(=O)CS/C(=N\C(=S)N(c2ccccc2)c2ccccc2)N1c1ccccc1
inactive: dose: 3.13 mg/kg/injection, schedule: Q04DX003 (ip), vehicle: saline with Tween-80 106 % of control | dose: 6.25 mg/kg/injection, schedule: Q04DX003 (ip), vehicle: saline with Tween-80 99 % of control | dose: 12.5 mg/kg/injection, schedule: Q04DX003 (ip), vehicle: saline with Tween-80 94 % of control and 95 % of control | dose: 50.0 mg/kg/injection, schedule: Q04DX003 (ip), vehicle: saline with Tween-80 86 % of control | dose: 200.0 mg/kg/injection, schedule: Q04DX003 (ip), vehicle: saline with Tween-80 93 % of control

CCCCCCCCCCCCCCN=Cc1c(O)c(O)c(C(C)C)c2cc(C)c(-c3c(C)cc4c(C(C)C)c(O)c(O)c(C=NCCCCCCCCCCCCCC)c4c3O)c(O)c12
inactive: [10] 98 % of control | [11] 90 % of control | dose: 50.0 mg/kg/injection, schedule: Q01DX005 (ip), vehicle: Klucel (hydroxypropylcellulose) (HPC) 98 % of control | dose: 100.0 mg/kg/injection, schedule: Q01DX005 (ip), vehicle: Klucel (hydroxypropylcellulose) (HPC) 95 % of control

CCOC(=O)C(C)c1nnc(-c2ccc(OC)cc2)[nH]c1=O (stereo not drawn)
inactive: [2] 94 % of control | [3] 97 % of control | [4] 99 % of control

Cc1sc2ccccc2[n+]1CCC(=O)O
inactive: [7] 100 % of control | [8] 100 % of control | [9] 98 % of control | dose: 400.0 mg/kg/injection, schedule: Q01DX009 (ip), vehicle: saline with Tween-80 98 % of control
